Results: patent US5128330A, “Oxazinone substituted phosphines” (Biofor, Ltd., priority 1991, dated 1992)

Tested on: carrageenan-induced hind paw edema
Assay: Acute antiinflammatory activity, carrageenan-induced paw edema test
Type: in vivo, Male Sprague-Dawley rats
Conditions: dosed 1 h before carrageenan, paw volume 3 h after carrageenan, rats
Protocol: Anti-Inflammatory: This activity was evaluated using a modification of the carrageenan-induced paw edema test described by C. A. Winter et al in Proc. Soc. […] This assay measures the ability of the test compound to antagonize local edema, a characteristic of the inflammatory response.
Acute antiinflammatory activity was evaluated using the carrageenan-inducedpaw edema test described by C. A. Winter, et al in Proc. Soc.
Male Sprague-Dawley rats were divided into groups of six rats each. […] One hour after dosing with the test compounds, the left hind paws were injected with a 0.1 ml carrageenan solution (1% in distilled water, sterilized) intraplantarly. Three hours after carrageenan injection the volume of the injected paws was redetermined. Group means were also determined and the drug effect was calculated as percent inhibition of the hind paw edema according to the following equation: [formula]

Row | Structure (SMILES) | % Inhibition (percent inhibition of the hind paw edema) (100 mg (so in the source)) | % Inhibition (percent inhibition of the hind paw edema) (100 mg/kg)
1 | CC(=O)Oc1ccccc1C(=O)O [Aspirin] | 50% | –
2 | CN1OCCC([P+](c2ccccc2)(c2ccccc2)c2ccccc2)C1=O (centres unmarked) [Example 1, (dihydro-N-methyl-2H-1,2-oxazin-3(4H)-oxo-4-yl)triphenylphosphonium bromide] | – | 62%
